From ChEMBL document CHEMBL6087390, “Pyridine and Pyrimidine hybrids as privileged scaffolds in antimalarial drug discovery: A recent development” (Bioorg Med Chem Lett, 2024)
≈ marks a conversion by molar mass, not a printed value. Blank lines part the entries; values can stand above or below the compound they belong to.

What was measured:
Plasmodium falciparum [1] = test: Antimalarial activity against Plasmodium falciparum RKL9; assay type: functional, organism-based
Plasmodium falciparum [2] = test: microbe, parasite or virus in culture; conditions: 3D7, 48 h
Plasmodium falciparum [3] = test: Antiplasmodial activity against Plasmodium falciparum Dd2 assessed as reduction in parasite growth measured after 72 hrs by SYBR Green 1 staining based assay; assay type: functional, organism-based; conditions: Dd2, 72 h
Plasmodium falciparum [4] = test: microbe, parasite or virus in culture; conditions: 3D7
Plasmodium falciparum [5] = test: Antiplasmodial activity against Plasmodium falciparum K1; assay type: functional, organism-based
Plasmodium falciparum [6] = test: microbe, parasite or virus in culture; conditions: 3D7, 72 h
Plasmodium falciparum [7] = test: Antimalarial activity against Plasmodium falciparum 3D7 assessed as reduction in malarial growth measured after 48 hrs by SYBR green dye based analysis; assay type: functional, organism-based; conditions: 3D7, 48 h
Plasmodium falciparum [8] = assay type: functional, organism-based; conditions: W2
[9] = Cytotoxicity against african green monkey Vero cells assessed as cell viability measured after 48 hrs by MTT assay; assay type: toxicity, cell-based, Chlorocebus sabaeus; conditions: chlorocebus sabaeus, time 48 hrs
Plasmodium falciparum [10] = test: Antimalarial activity against CQ-resistant Plasmodium falciparum Dd2; assay type: functional, organism-based
HepG2 [11] = test: Cytotoxicity against human HepG2 cells assessed as reduction in cell viability measured for 48 hrs by SRB assay; assay type: functional
[12] = Cytotoxicity against human MRC5 cells assessed as inhibition of cell growth incubated for 72 hrs by MTT assay; assay type: toxicity, cell-based
Plasmodium falciparum [13] = test: Antiplasmodial activity against multidrug resistant Plasmodium falciparum K1 assessed as reduction in parasite growth by [3H]-hypoxanthine incorporation assay; assay type: functional, organism-based
HepG2 [14] = test: Cytotoxicity against human HepG2 cells assessed as reduction in cell viability measured for 48 hrs by MTT assay; assay type: functional

IC50 (Plasmodium falciparum [1]): 5.4 µg/mL (≈ 13.8 µM) | IC50 (Plasmodium falciparum [2]): 12.2 µg/mL (≈ 31.2 µM)
Compound: COc1cc(-c2cc(-c3ccco3)nc(S)n2)ccc1OCc1ccccc1

Compound: FC(F)(F)c1cccc(CN(C2CC2)C(c2cccnc2)c2nnnn2C2CC2)c1 (stereo unspecified)
EC50 (Plasmodium falciparum [3]): 3 µM

IC50 (Plasmodium falciparum [2]): 1.75 µg/mL (≈ 3.7 µM)
Compound: Cc1nn(-c2ccccc2)c(-n2ccnc2)c1-c1cc(-c2cccs2)nc2nc3ccccc3n12

IC50 (Plasmodium falciparum [4]): 1.85 µg/mL
Compound: Cc1n[nH]c2c1C(c1ccc(Br)cc1)c1c(nc3oc(=O)c(C#N)c(N)c3c1N)O2 (stereo unspecified)

IC50 (Plasmodium falciparum [4]): 23.1 µM
Compound: O=C(N/N=C/c1cn(-c2ccccc2)nn1)c1ccncc1

IC50 (Plasmodium falciparum [5]): 0.277 µM | IC50 (Plasmodium falciparum [6]): 0.108 µM
Compound: Clc1ccc2c(NCCN3CCN(c4ncccn4)CC3)ccnc2c1

IC50 (Plasmodium falciparum [1]): 2.2 µg/mL (≈ 4.63 µM) | IC50 (Plasmodium falciparum [2]): 4.2 µg/mL (≈ 8.83 µM)
Compound: COc1ccc(-c2cc(-c3cc(Cl)sc3Cl)nc(S)n2)cc1OCc1ccccc1

Compound: Cc1cc(C)nc(NS(=O)(=O)c2ccc(-n3cc(COc4ccc5c(-c6ccccc6)c(C)c(=O)oc5c4)nn3)cc2)n1
IC50 (Plasmodium falciparum [7]): > 67.3 µM

IC50 (Plasmodium falciparum [4]): 0.84 µg/mL
Compound: Cc1n[nH]c2c1C(c1ccc(Cl)cc1)c1c(nc3oc(=O)c(C#N)c(N)c3c1N)O2 (stereo unspecified)

Compound: NCCCCNc1ncnc2c1cnn2-c1ccc(Cl)cc1
IC50 (Plasmodium falciparum [8]): 13.2 µM

IC50 (Plasmodium falciparum [4]): 59.1 µg/mL
Compound: Cc1cc(=O)oc2cc(OCc3cn(-c4ccc(S(=O)(=O)N5CCN(c6ccccn6)CC5)cc4)nn3)c(Cl)cc12

IC50 (Plasmodium falciparum [4]): 0.96 µg/mL
Compound: COc1ccc(C2c3c(C)n[nH]c3Oc3nc4oc(=O)c(C#N)c(N)c4c(N)c32)cc1OC (stereo unspecified)

IC50 (Plasmodium falciparum [2]): 0.09 µg/mL (≈ 0.197 µM)
Compound: Cc1nn(-c2ccccc2)c(-n2cncn2)c1-c1cc(-c2cc[nH]c2)nc2nc3ccccc3n12

IC50 (Plasmodium falciparum [4]): > 73.5 µg/mL
Compound: O=c1ccc2ccc(OCc3cn(-c4ccc(S(=O)(=O)N5CCN(c6ccccn6)CC5)cc4)nn3)cc2o1

IC50 (Plasmodium falciparum [4]): > 50 µg/mL
Compound: O=S(=O)(c1ccc(-n2cc(COc3ccc(F)cc3)nn2)cc1)N1CCN(c2ccccn2)CC1

Compound: Cc1ccc(-n2ncc3c(NCCCCNS(=O)(=O)c4ccc(C)cc4)ncnc32)cc1
IC50 (Plasmodium falciparum [8]): 12.2 µM

Compound: CC(C)=CCC1=C(O)C(=O)c2ccccc2C1=O [LAPACHOL]
CC50 at 48 h [9]: > 4130 µM

IC50 (Plasmodium falciparum [1]): 0.8 µg/mL (≈ 2.04 µM)
Compound: C(=C\c1cn(-c2ccccc2)nc1-c1ccccc1)/c1nnc(-c2ccncc2)o1
IC50 (Plasmodium falciparum [7]): 0.5 µg/mL

IC50 (Plasmodium falciparum [4]): 20.2 µM
Compound: O=C(N/N=C/c1cnn(-c2ccccc2)n1)c1ccncc1

Compound: COc1ccc2nc(/C=C/c3ccncc3)cc(NC3CCCCC3)c2c1
IC50 (Plasmodium falciparum [10]): 0.27 µM

IC50 (Plasmodium falciparum [4]): 12 µg/mL
Compound: O=S(=O)(c1ccc(-n2cc(COc3ccc(I)cc3)nn2)cc1)N1CCN(c2ccccn2)CC1

Compound: Cc1ccccc1N(C)C(=O)C(c1cccnc1)N(Cc1cc(C(F)(F)F)ccc1F)C1CC1 (stereo unspecified)
CC50 (HepG2 [11]): > 30 µM

IC50 (Plasmodium falciparum [6]): 0.08 µM
Compound: Cc1cc(Nc2ccc(S(=O)(=O)Nc3ccc(F)cc3)cc2)n2nc(C(F)(F)F)nc2n1

IC50 (Plasmodium falciparum [5]): 27.8 µM
Compound: O=C1CCCN1c1ccc(-n2nc3c(S(=O)(=O)N4CCOCC4)cccn3c2=O)cc1
IC50 at 72 h [12]: > 64 µM

IC50 (Plasmodium falciparum [4]): 0.48 µg/mL
Compound: COc1ccccc1C(=O)/C=C/c1ccccn1

Compound: Cc1ccccc1N(C)C(=O)C(c1cncnc1)N(Cc1cccc(OC(F)(F)F)c1)C1CC1 (stereo unspecified)
EC50 (Plasmodium falciparum [13]): 0.59 µM | CC50 (HepG2 [14]): > 30 µM

IC50 (Plasmodium falciparum [6]): 0.03 µM
Compound: Cc1ccc(NS(=O)(=O)c2ccc(Nc3cc(C)nc4nc(C(F)(F)F)nn34)cc2)cc1

IC50 (Plasmodium falciparum [1]): 10.5 µg/mL (≈ 28.1 µM) | IC50 (Plasmodium falciparum [2]): 20 µg/mL (≈ 53.6 µM)
Compound: COc1cc(-c2cc(-c3ccco3)nc(N)n2)ccc1OCc1ccccc1

IC50 (Plasmodium falciparum [4]): 46 µg/mL
Compound: O=S(=O)(c1ccc(-n2cc(COc3ccc(Br)cc3)nn2)cc1)N1CCN(c2ccccn2)CC1

Compound: Cc1ccccc1N(C)C(=O)C(c1cncnc1)N(Cc1cccc(SC(F)(F)F)c1)C1CC1 (stereo unspecified)
EC50 (Plasmodium falciparum [13]): 1 µM | CC50 (HepG2 [14]): > 30 µM

Compound: Cc1ccccc1N(C)C(=O)C(c1cccnc1)N(Cc1cccc(SC(F)(F)F)c1)C1CC1 (stereo unspecified)
CC50 (HepG2 [11]): > 30 µM

IC50 (Plasmodium falciparum [4]): > 71.7 µg/mL
Compound: Cc1cc(=O)oc2cc(OCc3cn(-c4ccc(S(=O)(=O)N5CCN(c6ccccn6)CC5)cc4)nn3)ccc12

IC50 (Plasmodium falciparum [4]): > 50 µg/mL
Compound: O=[N+]([O-])c1ccc(OCc2cn(-c3ccc(S(=O)(=O)N4CCN(c5ccccn5)CC4)cc3)nn2)cc1

IC50 (Plasmodium falciparum [4]): > 50 µg/mL
Compound: Cc1cc(C)nc(NS(=O)(=O)c2ccc(-n3cc(COc4ccccc4)nn3)cc2)n1

Compound: COc1ccc2nc(/C=C/c3ccncc3)cc(NCCN(C)C)c2c1
IC50 (Plasmodium falciparum [10]): 0.03 µM

Compound: COc1ccc2nc(/C=C/c3ccncc3)cc(Cl)c2c1
IC50 (Plasmodium falciparum [10]): 2.54 µM

Compound: CCc1ccccc1N(C)C(=O)C(c1cccnc1)N(Cc1cccc(C(F)(F)F)c1)C1CC1 (stereo unspecified)
CC50 (HepG2 [11]): > 30 µM

IC50 (Plasmodium falciparum [5]): 0.352 µM | IC50 (Plasmodium falciparum [6]): 0.46 µM
Compound: CC(C)CC(CN1CCN(c2ncccn2)CC1)Nc1ccnc2cc(Cl)ccc12 (stereo unspecified)

Compound: CCc1nnc2ccc(S(=O)(=O)N(Cc3cccc(F)c3)c3ccc(OC)cc3)cn12
IC50 at 72 h [12]: 18.2 µM

Compound: O=S(=O)(NCCCCNc1ncnc2c1cnn2-c1ccc(Cl)cc1)c1ccc(F)cc1
IC50 (Plasmodium falciparum [8]): 43.4 µM

IC50 (Plasmodium falciparum [5]): 11.5 µM
Compound: Cc1cc(C)cc(N(Cc2cc(C)ccc2C)S(=O)(=O)c2cccn3c(C)nnc23)c1
IC50 at 72 h [12]: 48.5 µM
